The values below come from paper PMC10630842, “Impact of dietary plant flavonoids on 7,8‐dihydroxyflavone transepithelial transport in human intestinal Caco‐2 cells” (Food Science & Nutrition, 2023).

Molecules are shown by their SMILES. Where “and” joins values, the source holds several entries; their conditions need not be identical. Identical values can stand only once.

One series has as its system Caco‐2 monolayers. Nature of the series: Bi-directional transepithelial transport of 7,8-DHF across Caco-2 monolayers with flavonoids screened as P-gp inhibitors (Papp, ER). On Modulatory effect on 7,8‐DHF transport: key: + indicates that the inhibitor has a significant effect on 7,8‐DHF transport; − indicates that the inhibitor has no significant effect on 7,8‐DHF transport. It counts as in vitro ADME, human. Conditions: for Modulatory effect on 7,8‐DHF transport: flavonoid equimolar with 7,8‐DHF 10 μmol/L. As to the method:
(§1) For this experiment, the 7,8‐DHF sample was first dissolved in a small amount of dimethyl sulfoxide (DMSO) and then diluted with HBSS to a working concentration of 10 μmol/L. The final DMSO concentration in the working solution was controlled to be less than 0.5%. […] Flavonoid samples were added to the AP and BL sides at equimolar concentrations with 7,8‐DHF (the sample concentration in HBSS solution was 10 μmol/L). Prior to transport, dietary flavonoids were pretreated on the AP side for 30 min. Then, these flavonoid reagents were removed, and a 0.5 mL HBSS solution containing various dietary flavonoids with 7,8‐DHF (concentration of 10 μmol/L) was added to the AP side, while 1.5 mL of blank HBSS was added to the BL side. Conversely, 1.5 mL of HBSS solution containing various dietary flavonoids with 7,8‐DHF (10 μmol/L) was added to the BL side, and 0.5 mL of blank HBSS was added to the AP side.
(§2) The magnitude of the apparent permeability coefficients (P app, cm/s) and efflux ratio (ER) reflects the ability of the test substance to pass through the monolayer cells and the speed of absorption.
(§3) (4) ER=PappAB/PappBA where P app AB is the apparent permeability coefficient for AP → BL transport, and P app BA is the apparent permeability coefficient for BL → AP transport.
(§4) Effect of different concentrations of specific flavonoids on 7,8‐DHF transepithelial transport was investigated. The operating procedure was followed by above section, with the exception that specific dietary flavonoid samples were added to the AP and BL sides at varying molar ratios with 7,8‐DHF (2:1, 1:1, 1:2, and 1:4). The specific dietary flavonoids were dissolved in HBSS while controlling the DMSO concentration to be less than 0.5%.

For series [1], the system named is Caco‐2 cells. Briefly: Uptake amount of 7,8-DHF in Caco-2 cells at the end of transport. It counts as in vitro ADME, human. The procedure:
The cell surface was rapidly washed three times with ice-cold HBSS solution. The cells were harvested using a cell scraper and resuspended in 1.0 mL of 0.1% extraction solution (phosphate: methanol = 1:1, v/v) before being homogenized in an ultrasonicator.

On the set-up of series [2]: method as in Liu et al., 2013. Conditions: C57BL/6 mice, ref Liu et al., 2013; cited from earlier work.
The subject of series [3] is Caco‐2 cells. Briefly: Stability (recovery) of 7,8-DHF in Caco-2 cells with or without inhibitors. Conditions: 60 and 240 min incubation.
Procedure: (§5) Simultaneously, 0.5 mL of the aforementioned solution was added to the AP side of the Transwell culture plate containing Caco‐2 cells, while 1.5 mL of blank HBSS added to the BL side. […] The Caco‐2 cell stability test was performed under both inhibitory and non‐inhibitory conditions, and the 7,8‐DHF content in the samples was determined.
(§6) A volume of 200 μL of receiving solution was transferred into a 1 mL centrifuge tube, followed by adding 10 μL of internal standard solution (10 μg/mL apigenin) and 200 μL of methanol. […] Thereafter, 5 μL of the supernatant was injected into the UPLC system. The UPLC system used in this study was a Waters ACQUITY UPLC H‐CLASS series instrument (Waters) equipped with a quaternary solvent manager, a sample manager‐flow through needle, a chromatographic column heater and a PDA eλ detector. […] The mobile phase comprised of methanol (solvent A) and 0.05% trifluoroacetic acid of ultrapure water (solvent B). The gradient elution program was as follows: 20% solvent A (0~1 min), 20%~80% solvent A (1~5 min), 80%~100% solvent A (5~7 min), 100 ~ 20% solvent A (7~8 min), and 20% solvent A (8~9 min). The flow rate maintained at 0.2 mL/min, the temperature was set to 37°C, and the PDA detector wavelength was set at 330 nm.
Assay in series [4]: as above
Conditions: human, Caco-2, pH 7.4.
Procedure: as §5, §6

For series [5], the system named is Caco‐2 cells. Nature of the series: Cytotoxicity, CCK-8 assay. The class given is cell-based, human. Conditions: 24 h. As to the method:
To determine the cytotoxicity of 7,8‐DHF for transport experiments, a CCK‐8 assay was carried out (Han et al., [2023]). A total of 200 μL culture medium containing Caco‐2 cells at a density of 3 × 10^4 cells/mL was seeded in a 96‐well plate and incubated for 24 h to allow for adherence. After the incubation period, the culture medium was removed and replaced with 200 μL fresh medium containing 7,8‐DHF at concentrations of 1, 10, 50, 100, and 300 μmol/L. Additionally, 200 μL medium without 7,8‐DHF was added as the control group, while medium without cells was used as the blank group. Following 24 h of drug stimulation, 10 μL CCK‐8 reagent was added to each well followed by another 2 h incubation. The absorbance was measured at 450 nm wavelength using an enzyme‐linked immunosorbent assay reader (Eonmei, BioTek). Each sample was repeated five times, and the cell survival rate was calculated using the following formula: (2) Cell survival rate%=ODsample group−ODblank group/ODcontrol group−ODblank group×100 where OD represents the absorbance of each sample at 450 nm wavelength.

A further series is described as follows: in vitro. The class given is in vitro ADME, human. Conditions: human, Caco-2. The procedure:
as §1, §2, §3, §4

Details of series [6]: method as in Xiao and Högger (2015). Conditions: DMEM solutions during Caco‐2 cell incubation; ref Xiao and Högger (2015); cited from earlier work.
Series [7] in a line: Stability of 7,8-DHF in HBSS. Conditions: HBSS pH 7.4, 37°C, 10 μmol/L. The class given is physicochemical.
Procedure: as §5, §6
Series [8] can be described thus: In vitro digestion stability of 7,8-DHF (simulated saliva, gastric fluid, intestinal fluid). The class given is in vitro ADME. Conditions: 7,8‐DHF combined with the named flavonoid. As to the method: The in vitro digestion model proposed by Versantvoort et al.'s report was modified as follows (Versantvoort et al., [2005]): […] The pH of the system was then adjusted to 7.5 and simulated intestinal fluid containing pancreatin and bile salts was added for 2 h of stirring. During the process, a certain amount of the digested liquid sample from the simulated saliva, gastric fluid, and intestinal fluid were taken, and ethanol was added to precipitate and inactivate the enzymes. […] A 1 mL aliquot was placed in a high-speed centrifuge tube (3K15, Sigma) and centrifuged at 4°C, 11000 × g for 15 min.

[9] abbreviates: human, Caco-2, 150 min, 10 μmol/L.

As a reminder, the Papp A→B is the apparent permeability from the apical to the basolateral side of a cell layer. Read a low Papp A→B as poor permeation. A word on the Papp B→A: it is the apparent permeability from the basolateral to the apical side of a cell layer. The efflux ratio is the permeability from basolateral to apical divided by that in the opposite direction, in the common usage.

Regarding `O=c1cc(-c2ccccc2)oc2cc(O)c(O)c(O)c12` [Baicalein, baicalein], the “Modulatory effect on 7,8‐DHF transport” value in the series with Caco‐2 monolayers (verapamil 100 μmol/L) was “+”. Moreover, the “ER of 7,8‐DHF in presence of the named inhibitor” value (“ER … of the named inhibitor” below) with Caco‐2 monolayers (setting [9]) is reported as 1.59.

As to `O=c1cc(-c2ccc(O)cc2)oc2c([C@@H]3O[C@H](CO)[C@@H](O)[C@H](O)[C@H]3O)c(O)cc(O)c12` [Vitexin, vitexin], in the series with Caco‐2 cells [1] (flavonoid: 7,8‐DHF 1:1 (equimolar), verapamil 100 μmol/L, end of 150 min transport), the “Uptake amount of 7,8‐DHF in Caco‐2 cells after treatment with the named inhibitor” value is “significant decrease”. The “Modulatory effect on 7,8‐DHF transport” value in the series with Caco‐2 monolayers (verapamil 100 μmol/L) was “−”. Further, in the series on Caco‐2 monolayers (setting [9]), the “P app AB of 7,8‐DHF in presence of the named inhibitor” value (“P app AB … of the named inhibitor” for short) is 1.14 ± 0.16 ×10^−6 cm/s and the “P app BA of 7,8‐DHF in presence of the named inhibitor” value (from here on “P app BA … of the named inhibitor”) is given as 1.94 ± 0.03 ×10^−6 cm/s.

Regarding `O=C1C[C@@H](c2ccc(O)cc2)Oc2cc(O)cc(O)c21` [Naringenin, naringenin], the “Modulatory effect on 7,8‐DHF transport” value in the series with Caco‐2 monolayers (verapamil 100 μmol/L) was “−”. Moreover, in the series on Caco‐2 monolayers (setting [9]), the “P app AB … of the named inhibitor” value is reported as 1.16 ± 0.02 ×10^−6 cm/s and the “P app BA … of the named inhibitor” value is given as 1.88 ± 0.11 ×10^−6 cm/s.

Turning to `O=c1cc(-c2ccc(O)c(O)c2)oc2c([C@@H]3O[C@H](CO)[C@@H](O)[C@H](O)[C@H]3O)c(O)cc(O)c12` [Orientin], in the series on Caco‐2 monolayers (verapamil 100 μmol/L), the “Modulatory effect on 7,8‐DHF transport” value is recorded as “−”.

Consider `O=c1c(O)c(-c2cc(O)c(O)c(O)c2)oc2cc(O)cc(O)c12` [Myricetin, myricetin], for which the “Modulatory effect on 7,8‐DHF transport” value in the series on Caco‐2 monolayers (verapamil 100 μmol/L) is “+”.

`COc1ccc(-c2coc3cc(O)cc(O)c3c2=O)cc1` [Biochanin A, biochanin A]: the “Modulatory effect on 7,8‐DHF transport” value in the series with Caco‐2 monolayers (verapamil 100 μmol/L) is recorded as “−”.

As to `O=c1c(-c2ccc(O)cc2)coc2cc(O)cc(O)c12` [Genistein, genistein], the “Modulatory effect on 7,8‐DHF transport” value in the series on Caco‐2 monolayers (verapamil 100 μmol/L) is reported as “+”.

`O=c1cc(-c2ccccc2)oc2c(O)c(O)ccc12` [7,8‐DHF, 7,8‐Dihydroxyflavone]: the Oral bioavailability in series [2] is 4.6%. In the series with Caco‐2 cells [3], the “Metabolism of 7,8‐DHF in Caco‐2 cells (recovery vs blank HBSS)” value was “not metabolized”. In series [4], this compound showed a recovery at 60 min, 10 μmol/L of 99.11 ± 0.57% and a recovery at 240 min, 10 μmol/L of 97.74 ± 0.42%. Further, in the series on Caco‐2 cells [5] (300 μmol/L), the “Cell toxicity toward Caco‐2 cells (CCK‐8)” value is listed as “certain cell toxicity”. In addition, the “Cell toxicity toward Caco‐2 cells (CCK‐8)” value in the series on Caco‐2 cells [5] (concentration range 1~100 μmol/L) is recorded as “no significant cell toxicity”. For the same compound, the “Uptake amount of 7,8‐DHF in Caco‐2 cells” value in the series on Caco‐2 cells [1] (control, 7,8‐DHF without inhibitor, end of 150 min transport) came out at 0.378 ± 0.018 nmol/mg protein. In addition, in the series “in vitro”, the Papp A→B at 150 min, 10 μmol/L stood at 1.19 ± 0.08 ×10⁻⁶ cm/s; the Papp B→A at 150 min, 10 μmol/L turned out to be 1.91 ± 0.13 ×10⁻⁶ cm/s; the efflux ratio at 150 min, 10 μmol/L worked out at 1.61. For the same compound, the “Half‐degradation time” value in [6] was “above 180 min”. The “Recovery of 7,8-DHF” value in series [7] (60 min) stood at 98.71±1.07%. For the same compound, in series [7] (240 min), the “Recovery of 7,8-DHF” value was 97.26±2.17%.

On to `O=c1cc(-c2ccc(O)c(O)c2)oc2cc(O)c([C@@H]3O[C@H](CO)[C@@H](O)[C@H](O)[C@H]3O)c(O)c12` [Isoorientin, isoorientin], for which the “Modulatory effect on 7,8‐DHF transport” value in the series with Caco‐2 monolayers (verapamil 100 μmol/L) was “+”.

Consider `O=c1c(O)c(-c2ccc(O)c(O)c2)oc2cc(O)cc(O)c12` [Quercetin, quercetin], for which the “Uptake amount of 7,8‐DHF in Caco‐2 cells with the named flavonoid” value in the series with Caco‐2 cells [1] (molar concentration ratio flavonoid to 7,8‐DHF 1:2) and in the series on Caco‐2 cells [1] (molar concentration ratio flavonoid to 7,8‐DHF 4:1) was “did not increase the uptake” in each case. The “Modulatory effect on 7,8‐DHF transport” value in the series on Caco‐2 monolayers (verapamil 100 μmol/L) is listed as “+”. For the same compound, in [8], the “Effect of combined flavonoid on retention of 7,8‐DHF in simulated in vitro digestion” value is “no significant effects were observed”.

As to `O=c1c(O)c(-c2ccc(O)c(O)c2)oc2cc(O)ccc12` [Fisetin, fisetin], the “Modulatory effect on 7,8‐DHF transport” value in the series with Caco‐2 monolayers (verapamil 100 μmol/L) is given as “+”.

As for `O=c1cc(-c2ccc(O)cc2)oc2cc(O)c([C@@H]3O[C@H](CO)[C@@H](O)[C@H](O)[C@H]3O)c(O)c12` [Isovitexin, isovitexin], the “Modulatory effect on 7,8‐DHF transport” value in the series with Caco‐2 monolayers (verapamil 100 μmol/L) is recorded as “+”. Also, in the series with Caco‐2 monolayers (setting [9]), the “ER … of the named inhibitor” value stood at 1.55, the “P app AB … of the named inhibitor” value was 1.27 ± 0.08 ×10^−6 cm/s and the “P app BA … of the named inhibitor” value is listed as 1.97 ± 0.11 ×10^−6 cm/s.

Consider `O=c1c(O)c(-c2ccc(O)cc2)oc2cc(O)cc(O)c12` [Kaempferol, kaempferol], for which the “Modulatory effect on 7,8‐DHF transport” value in the series with Caco‐2 monolayers (verapamil 100 μmol/L) is “+”. Also, in series [8], the “Effect of combined flavonoid on retention of 7,8‐DHF in simulated in vitro digestion” value is reported as “no significant effects were observed”.

Take `O=C(O[C@@H]1Cc2c(O)cc(O)cc2O[C@@H]1c1cc(O)c(O)c(O)c1)c1cc(O)c(O)c(O)c1` [EGCG, epigallocatechin gallate]: the “ER … of the named inhibitor” value with Caco‐2 monolayers (7,8‐DHF 10 μmol/L, flavonoid equimolar (1:1, 10 μmol/L), verapamil 100 μmol/L) is listed as 1.34; in the series with Caco‐2 monolayers (7,8‐DHF 10 μmol/L, flavonoid equimolar (1:1, 10 μmol/L), verapamil 100 μmol/L, listed as epigallocatechin gallate), “less than 1.5”. The “P app AB … of the named inhibitor” value in the series with Caco‐2 monolayers (7,8‐DHF 10 μmol/L, flavonoid equimolar (1:1, 10 μmol/L), verapamil 100 μmol/L, AP → BL, 150 min) is reported as 1.21 ± 0.03 ×10^−6 cm/s. In addition, the “P app BA … of the named inhibitor” value in the series on Caco‐2 monolayers (7,8‐DHF 10 μmol/L, flavonoid equimolar (1:1, 10 μmol/L), verapamil 100 μmol/L, BL → AP, 150 min) was 1.63 ± 0.05 ×10^−6 cm/s and 1.62 ± 0.05 ×10^−6 cm/s. The “Modulatory effect on 7,8‐DHF transport” value in the series on Caco‐2 monolayers (verapamil 100 μmol/L) was “+”.
